How the values were obtained:
Format in all cases: cell-based, human
[1] = tested on: cytochrome c in MCF-7 cells; experiment: Mitochondria staining and cytochrome c detection, MCF-7; settings: IC50 value, 24 h
Description: (§1) The MitoTracker Deep Red FM probe (MitoTracker Mitochondrion-Selective Probes, Invitrogen European Headquarters, Paisley, PA4 9RF, UK) was used for mitochondrial staining, as previously described. For immunofluorescence analysis, the cells were seeded and further processed, as reported by Iacopetta et al.. The primary antibodies used were: rabbit anti-β-Actin and vimentin (Santa Cruz Biotechnology, Dallas, TX, USA), mouse anti cytochrome c and NF-κB p65 (Abcam, Cambridge, UK), diluted 1:100 in bovine serum albumin (BSA) 2% overnight at 4 °C. The secondary antibodies were: Alexa Fluor® 488 conjugate goat-anti-rabbit and Alexa Fluor® 568 conjugate goat-anti-mouse (Thermo Fisher Scientific, MA, USA), diluted 1:500 and incubated for 2h at 37 °C. DAPI 0.2 μg/mL (Sigma Aldrich, Milan, Italy) was used for nuclei staining. […] All the images were acquired and processed using the LAS-X software.

vimentin in MCF-7 cells = experiment: Vimentin expression (immunofluorescence), MCF-7; settings: fluorescence quantification; IC50 value, 24 h
Description: as §1
Protein lysates underwent the SDS-PAGE process, as already defined. Then lysates were resolved on a 7.5% SDS polyacrylamide gel, transferred to a nitrocellulose membrane, and probed with antibodies against vimentin and GAPDH (Santa Cruz Biotechnology, Dallas, TX, USA). […] The images are representative of three independent experiments.

[2] = tested on: NF-κB in MDA-MB-231 cells; experiment: NF-κB immunofluorescence, MDA-MB-231; settings: IC50 value, 24 h
Description: as §1

MDA-MB-231 cells = experiment: TUNEL assay, MDA-MB-231; settings: IC50, 24 h
Text: Images are representative of three independent experiments.

Row | Structure (SMILES) | cytochrome c localization, MCF-7 [1] | reduction of vimentin expression with respect to the control, MCF-7 (vimentin in MCF-7 cells) | NF-κB translocation, MDA-MB-231 [2] | apoptosis (TUNEL), MDA-MB-231 (MDA-MB-231 cells)
1 | CC(=O)[O-].Cn1c(Cl)c(Cl)n(CC(O)c2ccccc2)[c]1=[Au+]=[c]1n(C)c(Cl)c(Cl)n1CC(O)c1ccccc1 (stereo not shown) [Compound 6, Bis [4,5-dichloro-(N-methyl, N’(2-hydroxy-2-phenyl-ethyl)imidazole-2-ylidine]gold(I)] acetate] | cytochrome c is localized within mitochondria | two-fold | – | –
2 | Cn1ccn(CC([O-])c2ccccc2)[c]1=[Au+]=[c]1n(C)ccn1CC([O-])c1ccccc1.[Cl-].[Na+].[Na+] (stereo not shown) [Compound 1] | – | – | reduced the translocation of NF-κB from the cytoplasm to the nucleus | induced apoptosis

— publication PMC9146163, “Novel Au Carbene Complexes as Promising Multi-Target Agents in Breast Cancer Treatment” (Pharmaceuticals, 2022)
